# According to US9150526B2, “Biaryl-propionic acid derivatives and their use as pharmaceuticals” (SANOFI, priority 2013, dated 2015):
# Test system: Recombinant human cathepsin A
# Assay: Cathepsin A inhibitory activity (Bodipy FL-bradykinin substrate, microfluidic capillary electrophoresis)
# Assay type: biochemical
# Settings: read-out: CATH A IC50
# Method: Pharmacological Tests a) Cathepsin a Inhibitory Activity
# Recombinant human cathepsin A (residues 29-480, with a C-terminal 10-His tag; R&D Systems, #1049-SE) was proteolytically activated with recombinant human cathepsin L (R&D Systems, #952-CY). Briefly, cathepsin A was incubated at 10 μg/ml with cathepsin L at 1 μg/ml in activation buffer (25 mM 2-(morpholin-4-yl)-ethanesulfonic acid (MES), pH 6.0, containing 5 mM dithiothreitol (DTT)) for 15 min at 37° C.
# The activated cathepsin A was diluted in assay buffer (25 mM MES, pH 5.5, containing 5 mM DTT) and mixed with the test compound (dissolved in assay buffer containing (v/v) 3% DMSO) or, in the control experiments, with the vehicle in a multiple assay plate. After incubation for 15 min at room temperature, as substrate then bradykinin carrying an N-terminal ®Bodipy FL (4,4-difluoro-5,7-dimethyl-4-bora-3a,4a-diaza-s-indacene-3-propionyl) label (JPT Peptide Technologies GmbH; dissolved in assay buffer) was added to the mixture. The final concentration of cathepsin A was 833 ng/ml and the final concentration of labeled bradykinin 2 μM. After incubation for 15 min at room temperature the reaction was stopped by the addition of stop buffer (130 mM 2-(4-(2-hydroxy-ethyl)-piperazin-1-yl)-ethanesulfonic acid, pH 7.4, containing (v/v) 0.013% ®Triton X-100, 0.13% Coating Reagent 3 (Caliper Life Sciences), 6.5% DMSO and 20 μM ebelactone B (Sigma, # E0886)).
# Uncleaved substrate and product were then separated by a microfluidic capillary electrophoresis on a LabChip® 3000 Drug Discovery System (12-Sipper-Chip; Caliper Life Sciences) and quantified by determination of the respective peak areas. Substrate turnover was calculated by dividing product peak area by the sum of substrate and product peak areas, and the enzyme activity and the inhibitory effect of the test compound thus quantified.
row,SMILES,IC50
1,COc1ccc(C)cc1-c1ccc(OC)c(C(CC(=O)O)c2ncc(C)s2)c1 (centres unmarked) [compound 67],9690 nM
2,COc1ccc(F)cc1-c1cccc(C(CC(=O)O)c2nccs2)c1 (centres unmarked) [compound 3],160 nM
3,CC(C)Oc1ccccc1-c1cccc(C(CC(=O)O)c2nccs2)c1 (centres unmarked) [compound 35],409 nM
4,COc1ccc(Cl)cc1-c1ccc(OC)c(C(CC(=O)O)c2ncc(C)s2)c1 (centres unmarked) [compound 65],3050 nM
5,COc1cccc(C#N)c1-c1cccc(C(CC(=O)O)c2nccs2)c1 (centres unmarked) [compound 47],1750 nM
6,COc1cccc(OC)c1-c1cc(Cl)cc(C(CC(=O)O)c2ncc(C)s2)c1 (centres unmarked) [compound 10],7 nM
7,COc1ccc(C(C)(C)C)cc1-c1cccc(C(CC(=O)O)c2nc(C)c(C)s2)c1 (centres unmarked) [compound 18],530 nM
8,COc1ccc(OC(F)(F)F)cc1-c1cccc(C(CC(=O)O)c2nccs2)c1 (centres unmarked) [compound 34],389 nM
9,COc1ccc(C)cc1-c1cccc(C(CC(=O)O)c2nccs2)c1 (centres unmarked) [compound 24],147 nM
10,COc1ccc(C(C)(C)C)cc1-c1cc(Cl)cc(C(CC(=O)O)c2ncc(C)s2)c1 (centres unmarked) [compound 85],55 nM
11,COc1cccc(OC)c1-c1cccc(C(CC(=O)O)c2ncc(C)s2)c1 (centres unmarked) [compound 51],11 nM
12,COc1ccc(C(C)(C)C)cc1-c1cccc([C@@H](CC(=O)O)c2ncco2)c1 [compound 11],51 nM
13,COc1cc(C)cc(OC)c1-c1cc(Cl)cc(C(CC(=O)O)c2ncc(C)s2)c1 (centres unmarked) [compound 74],19 nM
14,COc1ccc(O)cc1-c1cccc(C(CC(=O)O)c2nccs2)c1 (centres unmarked) [compound 32],307 nM
15,COc1cc(CO)ccc1-c1cccc(C(CC(=O)O)c2nccs2)c1 (centres unmarked) [compound 30],201 nM
16,COc1ccc(Cl)cc1-c1cccc(C(CC(=O)O)c2ncc(C)s2)c1 (centres unmarked) [compound 62],262 nM
17,COc1ccc(OC)c(-c2cccc(C(CC(=O)O)c3ncc(C)s3)c2)c1 (centres unmarked) [compound 54],94 nM
18,COc1cc(C(F)(F)F)ccc1-c1cccc(C(CC(=O)O)c2nccs2)c1 (centres unmarked) [compound 48],2280 nM
19,COc1ccc(F)cc1-c1ccc(OC)c(C(CC(=O)O)c2ncc(C)s2)c1 (centres unmarked) [compound 63],1170 nM
20,COc1cc(C(N)=O)ccc1-c1cccc(C(CC(=O)O)c2nccs2)c1 (centres unmarked) [compound 45],1380 nM
21,COc1cc(Cl)ccc1-c1cccc(C(CC(=O)O)c2nccs2)c1 (centres unmarked) [compound 38],590 nM
22,COc1cccc(Cl)c1-c1cccc(C(CC(=O)O)c2nccs2)c1 (centres unmarked) [compound 31],292 nM
23,COC(=O)c1ccc(OC)c(-c2cccc(C(CC(=O)O)c3nccs3)c2)c1 (centres unmarked) [compound 23],140 nM
24,COc1ccc(F)cc1-c1cc(Cl)cc(C(CC(=O)O)c2ncc(C)s2)c1 (centres unmarked) [compound 79],38 nM
25,COc1cccc(-c2cccc(C(CC(=O)O)c3nccs3)c2)c1OC (centres unmarked) [compound 41],950 nM
26,COc1cccc(OC)c1-c1cccc(C(CC(=O)O)c2nccs2)c1 (centres unmarked) [compound 20],30 nM
27,COc1ccccc1-c1cc(Cl)cc(C(CC(=O)O)c2ncc(C)s2)c1 (centres unmarked) [compound 75],21 nM

# The next lines start with the values.
row,IC50,SMILES
1,6 nM,COc1cc(C)cc(OC)c1-c1cc(C(CC(=O)O)c2nnc(C)o2)cc(C(F)(F)F)c1 (centres unmarked) [compound 206]
2,122 nM,COc1ccc(OC)c(-c2cc(F)cc(C(CC(=O)O)c3ncc(C)s3)c2)c1 (centres unmarked) [compound 112]
3,22 nM,COc1ccc(CO)cc1-c1cc(C(CC(=O)O)c2nnc(C)o2)cc(C(F)(F)F)c1 (centres unmarked) [compound 221]
4,4210 nM,COc1cccc(C(=O)N2CCCC2)c1-c1cc(Cl)cc(C(CC(=O)O)c2nnc(C)o2)c1 (centres unmarked) [compound 171]
5,53 nM,COc1c(C)cccc1-c1cc(C(CC(=O)O)c2nnc(C)o2)cc(C(F)(F)F)c1 (centres unmarked) [compound 220]
6,3910 nM,COc1ccc(Cl)cc1-c1cncc(C(CC(=O)O)c2nnc(C)o2)c1 (centres unmarked) [compound 191]
7,160 nM,COc1cccc(OC)c1-c1cncc(C(CC(=O)O)c2nnc(C)o2)c1 (centres unmarked) [compound 184]
8,10 nM,COc1ccc2c(c1-c1cc(C(CC(=O)O)c3nnc(C)o3)cc(C(F)(F)F)c1)OC(C)(C)C2 (centres unmarked) [compound 207]
9,3520 nM,COc1ccc(OC)c(-c2cncc(C(CC(=O)O)c3nnc(C)o3)c2)c1 (centres unmarked) [compound 180]
10,195 nM,COc1ccc(C(C)C)cc1-c1cc(F)cc(C(CC(=O)O)c2ncc(C)s2)c1 (centres unmarked) [compound 119]
11,24 nM,COc1ccc(C)cc1-c1cccc(C(CC(=O)O)c2nnc(C)o2)c1 (centres unmarked) [compound 136]
12,129 nM,COc1cc(F)ccc1-c1cccc(C(CC(=O)O)c2nnc(C)o2)c1 (centres unmarked) [compound 146]
13,116 nM,COc1ccccc1-c1cc(F)cc(C(CC(=O)O)c2ncc(C)s2)c1 (centres unmarked) [compound 110]
14,17 nM,COc1cccc(Cl)c1-c1cc(C(CC(=O)O)c2nnc(C)o2)cc(C(F)(F)F)c1 (centres unmarked) [compound 214]
15,343 nM,COc1cc(C)cc(OC)c1-c1cncc(C(CC(=O)O)c2nnc(C)o2)c1 (centres unmarked) [compound 186]
16,89 nM,Cc1nnc(C(CC(=O)O)c2cc(Cl)cc(-c3ccccc3OC(F)(F)F)c2)o1 (centres unmarked) [compound 158]
17,466 nM,O=C(O)CC(c1cc(F)cc(-c2ccccc2OC(F)(F)F)c1)c1ncco1 (centres unmarked) [compound 130]
18,457 nM,COc1c(F)cc(F)cc1-c1cc(F)cc(C(CC(=O)O)c2ncco2)c1 (centres unmarked) [compound 129]

row,IC50,SMILES
1,41 nM,COc1ccc(OC)c(-c2cccc(C(CC(=O)O)c3nnc(C)o3)c2)c1 (centres unmarked) [compound 138]
2,4270 nM,CCOc1ccccc1-c1cncc(C(CC(=O)O)c2nnc(C)o2)c1 (centres unmarked) [compound 193]
3,14 nM,COc1ccc(OC)c(-c2cc(C(CC(=O)O)c3nnc(C)o3)cc(C(F)(F)F)c2)c1 (centres unmarked) [compound 201]
4,51 nM,COc1ccc(OC(F)(F)F)cc1-c1cc(C(CC(=O)O)c2nnc(C)o2)cc(C(F)(F)F)c1 (centres unmarked) [compound 213]
5,28 nM,COc1cc(C)cc(OC)c1-c1cc(F)cc(C(CC(=O)O)c2ncc(C)s2)c1 (centres unmarked) [compound 99]
6,222 nM,COc1ccc(OC(F)(F)F)cc1-c1cc(F)cc(C(CC(=O)O)c2ncco2)c1 (centres unmarked) [compound 122]
7,7070 nM,COc1ccc(F)cc1-c1cncc(C(CC(=O)O)c2nnc(C)o2)c1 (centres unmarked) [compound 192]
8,72 nM,COc1ccc(CO)cc1-c1cccc(C(CC(=O)O)c2nnc(C)o2)c1 (centres unmarked) [compound 141]
9,65 nM,Cc1nnc(C(CC(=O)O)c2cc(-c3ccccc3OC(F)(F)F)cc(C(F)(F)F)c2)o1 (centres unmarked) [compound 208]
10,118 nM,COc1cc(C(N)=O)ccc1-c1cc(Cl)cc(C(CC(=O)O)c2ncc(C)s2)c1 (centres unmarked) [compound 89]
11,17 nM,COc1ccc(C)cc1-c1cc(C(CC(=O)O)c2nnc(C)o2)cc(C(F)(F)F)c1 (centres unmarked) [compound 202]
12,131 nM,COc1c(F)cc(F)cc1-c1cc(Cl)cc(C(CC(=O)O)c2ncc(C)s2)c1 (centres unmarked) [compound 91]
13,165 nM,COc1ccc(OC(F)(F)F)cc1-c1cc(F)cc(C(CC(=O)O)c2nnc(C)o2)c1 (centres unmarked) [compound 168]
14,5 nM,COc1cccc(OC)c1-c1cc(Cl)cc(C(CC(=O)O)c2nnc(C)o2)c1 (centres unmarked) [compound 154]
15,5800 nM,COc1ccccc1-c1cncc(C(CC(=O)O)c2nnc(C)o2)c1 (centres unmarked) [compound 190]
16,31 nM,COc1ccc(C(C)C)cc1-c1cc(C(CC(=O)O)c2nnc(C)o2)cc(C(F)(F)F)c1 (centres unmarked) [compound 204]
17,652 nM,COc1cccc(C#N)c1-c1cccc(C(CC(=O)O)c2nnc(C)o2)c1 (centres unmarked) [compound 152]
